Experimental data as given in patent US7678918B2, “Intermediates for imidazonaphthyridines” (3M Innovative Properties Company, priority 1997, dated 2010).

Key:
IFN = assay: Cytokine Induction in Human Cells: interferon (IFN) secreted by PBMCs, A549/encephalomyocarditis bioassay; type: cell-based; settings: 18 to 24 hours
Description: (§1) An in vitro human blood cell system was used to assess cytokine induction by compounds of the invention. Activity is based on the measurement of interferon and tumor necrosis factor (ℑ) (IFN and TNF, respectively) secreted into culture media as described by Testerman et. al. In “Cytokine Induction by the Immunomodulators Imiquimod and S-27609”, Journal of Leukocyte Biology, 58, 365-372 (September, 1995). Blood Cell Preparation for Culture
(§2) Whole blood is collected by venipuncture into EDTA vacutainer tubes from healthy human donors. Peripheral blood mononuclear cells (PBMCs) are separated from whole blood by Histopaque®-1077 (Sigma Chemicals, St. Louis, Mo.) density gradient centrifugation. The PBMCs are suspended at 1.5-2×10^6 cells/mL in RPMI 1640 medium containing 10% fetal bovine serum, 2 mM L-glutamine and 1% penicillin/streptomycin solution (RPMI complete). 1 mL portions of PBMC suspension are added to 24 well flat bottom sterile tissue culture plates.
(§3) The compounds are solubilized in dimethyl sulfoxide (DMSO). The DMSO concentration should not exceed a final concentration of 1% for addition to the culture wells. The compounds are generally tested in a concentration range of from 0.1 to 100 μM.
(§4) The solution of test compound is added to the wells containing 1 mL of PBMCs in media. The plates are covered with plastic lids, mixed gently and then incubated for 18 to 24 hours at 37° C. with a 5% carbon dioxide atmosphere.
(§5) Following incubation the plates are centrifuged for 5-10 minutes at 1000 rpm (˜200×g) at 4° C. The cell culture supernatant is removed with a sterile polypropylene pipet and transferred to a 2 mL sterile cryotube. Samples are maintained at −70° C. until analysis.
Interferon is determined by bioassay using A549 human lung carcinoma cells challenged with encephalomyocarditis. The details of the bioassay method have been described by G. L. Brennan and L. H. Kronenberg in “Automated Bioassay of Interferons in Micro-test Plates”, Biotechniques, June/July 78, 1983, incorporated herein by reference. Briefly stated the method is as follows: A549 cells are incubated with samples and standard interferon dilutions at 37° C. for 24 hours. The incubated cells are then infected with an inoculum of encephalomyocarditis virus. The infected cells are incubated for an additional 24 hours at 37° C. before quantifying for viral cytopathic effect. The viral cytopathic effect is quantified by staining followed by visual scoring of the plates. Results are expressed as alpha reference units/mL based on the value obtained for NIH Human Leukocyte IFN standard.

TNF = assay: Cytokine Induction in Human Cells: tumor necrosis factor (TNF) secreted by PBMCs, ELISA; type: cell-based; settings: 18 to 24 hours
Description: as §1, §2, §3, §4, §5
Tumor necrosis factor (ℑ) (TNF) concentration is determined using an ELISA kit available from Genzyme, Cambridge, Mass. The results are expressed as pg/mL.
Further: call rule not given here.

Row | Structure (SMILES) | IFN induction (IFN; Dose Concentration 1.0 μM) | IFN induction (IFN; Dose Concentration 10.0 μM) | IFN induction (IFN; Dose Concentration 100.0 μM) | TNF induction (TNF; Dose Concentration 1.0 μM) | TNF induction (TNF; Dose Concentration 10.0 μM) | TNF induction (TNF; Dose Concentration 100.0 μM) | IFN induction (IFN; Dose Concentration 0.1 μM) | TNF induction (TNF; Dose Concentration 0.1 μM)
1 | CCCCc1nc2c(N)nc3cccnc3c2n1CCCCNC(=O)Cc1ccccc1 [Example 55, N-[4-(4-Amino-2-butyl-1H-imidazo[4,5-c][1,5]naphthyridin-1-yl)butyl]phenylaceatamide] | + | + | + | + | + | − |  | 
2 | CCCCc1nc2c(N)nc3cccnc3c2n1CCNC(=O)CCC(F)(F)F [Example 199] | − | + | + | − | + | + | + | −
3 | CCCCc1nc2c(N)nc3cccnc3c2n1CCCCNC(=O)c1cccnc1Cl [Example 183] | − | − | − | − and + | − and + | − | − | − and +
4 | CCCCc1nc2c(N)nc3cccnc3c2n1CCNC(=O)CCCCCCCCC(=O)OC [Example 122] | − | + | + | − | + | + |  | 
5 | CCCCc1nc2c(N)nc3cccnc3c2n1CCNC(=O)CCCc1ccc([N+](=O)[O-])cc1 [Example 195] | − | + | − | + | + | + | − | −
6 | CCCCc1nc2c(N)nc3cccnc3c2n1CCCCNC(=O)CCC1CCCC1 [Example 175] | + | + | − | + | + | − | − | −
7 | CCCCc1nc2c(N)nc3cccnc3c2n1CCNC(=O)C1CCCC1 [Example 137] | + | + | + | − | ± | + |  | 
8 | CCCCNC(=O)NCCCCn1c(CCCC)nc2c(N)nc3cccnc3c21 [Example 49, N-[4-(4-Amino-2-butyl-1H-imidazo[4,5-c][1,5]naphthyridin-1-yl)butyl]-N′-butylurea] | + | + | + | + | + | + | + | −
9 | CCCCc1nc2c(N)nc3cccnc3c2n1CCCCNC(=O)c1cccc(Br)c1 [Example 153] | + | + | − | + | + | − | − | −
10 | CCCCc1nc2c(N)nc3cccnc3c2n1CCNC(=O)c1ccc(C#N)cc1 [Example 139] | + | + | + | − | + | + |  | 
11 | CCCCc1nc2c(N)nc3cccnc3c2n1CCNC(=O)CCCCC(=O)OC [Example 145] | − | + | + | + | + | + | − | −
12 | CCCCc1nc2c(N)nc3cccnc3c2n1CCCCNC(=O)c1ccc(N2CCOCC2)nc1 [Example 106, N^1-[4(4-Amino-2-butyl-1H-imidazo[4,5-c][1,5]naphthyridin-1-yl)butyl]-6-morpholinonicotinamide] | + | + | − | + | + | − | + | −
13 | CCCCc1nc2c(N)nc3cccnc3c2n1CCCCNC(=O)Oc1ccccc1 [Example 50, Phenyl N-[4-(4-Amino-2-butyl-1H-imidazo[4,5-c][1,5]naphthyridin-1-yl)butyl]carbamate] | + | + | − | + | + | − |  | 
14 | CCCCc1nc2c(N)nc3cccnc3c2n1CCNC(=O)C1CC1 [Example 136] | + | + | + | − | + | + |  | 
15 | CCCCc1nc2c(N)nc3cccnc3c2n1CCCCNC(=O)c1ccccc1OC [Example 188] | + | + | − | + | + | − | + | −
16 | CCCCc1nc2c(N)nc3cccnc3c2n1CCCCNC(=O)c1ccc2ncccc2c1 [Example 107, N^1-[4-(4-Amino-2-butyl-1H-imidazo[4,5-c][1,5]naphthyridin-1-yl)butyl]-6-quinolinecarboxamide] | + | + | − | + | + | − | + | −
17 | CCCCc1nc2c(N)nc3cccnc3c2n1CCNC(=O)C1CC(=O)N(Cc2ccc(Cl)cc2)C1 (stereo not drawn) [Example 210] | − | + | + | + | + | + | − | +
18 | CCCCc1nc2c(N)nc3cccnc3c2n1CCNC(=O)c1ccc(Br)o1 [Example 206] | + | + | + | + | + | + | + | −
